These are literature values, as cited in patent EP3290412A1, “HIV-1 NUCLEOCAPSID INHIBITORS” (Università degli Studi di Siena, priority 2016, dated 2018).

In series [1] the test system is NIH Catalogue Number: 7401. The conditions noted are these: cited from earlier work; for Level of resistance: NRTI resistant strain 7401; for Fold change: strain 7401, resistant virus IC50 to wild-type reference virus IC50 ratio, cut-off in brackets.
The test system of series [2] is NIH Catalogue Number: 7400. To be noted: cited from earlier work; for Level of resistance: NRTI resistant strain 7400; for Fold change: strain 7400, resistant virus IC50 to wild-type reference virus IC50 ratio, cut-off in brackets.
Series [3] has as its system NIH Catalogue Number: 11808. The conditions noted are these: cited from earlier work; for Level of resistance: PI resistant strain 11808; for Fold change: strain 11808, resistant virus IC50 to wild-type reference virus IC50 ratio, cut-off in brackets.
Series [4] relates to NIH Catalogue Number: 12465. The conditions noted are these: cited from earlier work; for Level of resistance: PI resistant strain 12465; for Fold change: strain 12465, resistant virus IC50 to wild-type reference virus IC50 ratio, cut-off in brackets.
In series [5] the test system is NIH Catalogue Number: 12231. To be noted: cited from earlier work; for Level of resistance: NNRTI resistant strain 12231; for Fold change: strain 12231, resistant virus IC50 to wild-type reference virus IC50 ratio, cut-off in brackets.
The subject of series [6] is NIH Catalogue Number: 12229. The conditions noted are these: cited from earlier work; for Level of resistance: NNRTI resistant strain 12229; for Fold change: strain 12229, resistant virus IC50 to wild-type reference virus IC50 ratio, cut-off in brackets.
In series [7] the test system is NIH Catalogue Number: 11845. The conditions noted are these: INI resistant strain 11845; cited from earlier work.

Marks after values point to notes of the source that are not given here.

Turning to `Nc1nc(=O)n([C@@H]2CS[C@H](CO)O2)cc1F` [Emtricitabine], in series [1], the Level of resistance entry is “High resistance” and the Fold change is given as >200 (3.5^c). In series [2], the Level of resistance entry is reported as “High resistance” and the Fold change is >200 (3.5^c).
For `CC(C)CN(C[C@@H](O)[C@H](Cc1ccccc1)NC(=O)O[C@H]1CO[C@H]2OCC[C@H]21)S(=O)(=O)c1ccc(N)cc1` [Darunavir], in series [3], the Level of resistance entry is recorded as “High resistance” and the Fold change is on record as 127 (10^c). For the same compound, in series [4], the Level of resistance result is recorded as “Susceptible” and the Fold change is 5.2 (10^c).
Consider `Cc1ccnc2c1NC(=O)c1cccnc1N2C1CC1` [Nevirapine], for which the Level of resistance entry in series [5] and in series [6] was “High resistance” throughout. For the same compound, the Fold change in series [5] and in series [6] was >200 (4.5^b) throughout.
For `C[C@H](Cn1cnc2c(N)ncnc21)OCP(=O)(O)O` [Tenofovir], in series [1], the Level of resistance entry is recorded as “High resistance” and the Fold change is given as 1.5 (1.4^c). Moreover, in series [2], the Level of resistance result is listed as “High resistance” and the Fold change is recorded as 2.3 (1.4^c).
As to `Nc1nc(NC2CC2)c2ncn([C@H]3C=C[C@@H](CO)C3)c2n1` [Abacavir], in series [1], the Level of resistance result is on record as “High resistance” and the Fold change is 7.4 (4.5^c). Moreover, in series [2], the Level of resistance result is on record as “High resistance” and the Fold change was 7.7 (4.5^c).
Consider `Cc1cc(C#N)cc(C)c1Oc1nc(Nc2ccc(C#N)cc2)nc(N)c1Br` [Etravirine], for which, in series [5], the Level of resistance entry is “High resistance” and the Fold change is reported as 8.8 (2.9^c). Further, in series [6], the Level of resistance entry was “High resistance” and the Fold change is 6.8 (2.9^c).
With `Cc1cn([C@H]2C[C@H](N=[N+]=[N-])[C@@H](CO)O2)c(=O)[nH]c1=O` [Zidovudine], in series [1], the Level of resistance entry is reported as “High resistance” and the Fold change is 24 (1.9^b). In series [2], the Level of resistance result was “High resistance” and the Fold change is reported as 61 (1.9^b).
For `Cc1cccc(C)c1OCC(=O)N[C@@H](Cc1ccccc1)[C@@H](O)C[C@H](Cc1ccccc1)NC(=O)[C@H](C(C)C)N1CCCNC1=O` [Lopinavir], in series [3], the Level of resistance entry was “High resistance” and the Fold change is 70 (10^c). For the same compound, in series [4], the Level of resistance entry was “Intermediate resistance” and the Fold change is given as 36 (10^c).
For `COc1cc2c(cc1Cc1cccc(Cl)c1F)c(=O)c(C(=O)O)cn2[C@H](CO)C(C)C` [Elvitegravir™, Elvitegravir], the Level of resistance result in series [7] is on record as “Intermediate”.
With `O=C1Nc2ccc(Cl)cc2[C@@](C#CC2CC2)(C(F)(F)F)O1` [Efavirenz], in series [5], the Level of resistance result was “High resistance” and the Fold change was 90 (3^b). For the same compound, in series [6], the Level of resistance entry was “High resistance” and the Fold change is >200 (3^b).
Consider `COC(=O)N[C@H](C(=O)N[C@@H](Cc1ccccc1)[C@@H](O)CN(Cc1ccc(-c2ccccn2)cc1)NC(=O)[C@@H](NC(=O)OC)C(C)(C)C)C(C)(C)C` [Atazanavir], for which the Level of resistance result in series [3] and in series [4] was “High resistance” in each case. Moreover, the results for the Fold change in series [3] and in series [4] were 90 (2.2^c) and 110 (2.2^c), respectively.
